According to patent US20240299353A1, “COMPOSITIONS AND METHODS FOR TREATING […] 5-MEO-DMT” (Alvarius Pharmaceuticals Ltd., priority 2021, published 2024):

Tested on: rats
Assay: Open field test
Assay type: in vivo
Conditions: for duration of rearing behaviour, main effect: 5-MeO-DMT p=0.0047, cocaine p=0.0380; for duration of time spent in the centre of the arena: any treatment group; for number of rearings, main effect: cocaine p=0.0202, 5-MeO-DMT p=0.0020; for duration of time spent in the centre of the field: any of treatments
Experimental: In this instance the animals were 9 weeks old at the initiation of drug exposures and we selected just the high (20 mg/kg) dose of 5-MeO-DMT from the molecular study. […] Due to the number of behavioral paradigms to be completed by each animal we divided the study into two cohorts staggered by two weeks with 8 animals coming from each cohort to make up the 16 animals for each treatment group. 23 hours after 5-MeO-DMT administration the animals were introduced to the open field arena where they were allowed to freely explore the area for 5 mins. Following the open field test (OFT) animals were returned to their home cage for 2 hours before beginning either the elevated plus maze (EPM) or pre-pulse inhibition (PPI) testing. 24 hours after completing the OFT animals were returned to the chamber for the first session in novel object (NO1) testing. The animals were returned to their home cage for 2 hours before beginning the EPM or PPI test. 24 hours after NO1 the animals returned to the open field chamber for the second session in novel object (N02) testing. After completing N02 animals were returned to their home cage for 2 hours before they underwent the forced swim test (FST) pre-test. 24 hours later the animals were returned to the FS cylinders for the FST. Upon completion of the FST all animals were euthanized. A timeline of this experimental cohort is described in FIG. 8A.
The experiment was conducted as described for cohort 1 for the first 13 days of injections. There are a number of notable differences in experimental procedures between the two cohorts of animals to be highlighted. […] Finally, the dose of 5-MeO-DMT was reduced to 10 mg/kg. The order and timing of all the behavioral paradigms were kept constant between the cohorts. A timeline of this experimental cohort is described in FIG. 8B. Additionally, 5-MeO-DMT administrations were staggered so animals could be observed for the duration of acute drug effects and to ensure recovery prior to the next animal being injected. The typical symptoms of psychedelic drug administration outlined above were reproduced in all animals administered 5-MeO-DMT.
The open field environment provides a fast and relatively easy test that determines a variety of behavioral information ranging from general ambulatory ability to data regarding the emotionality of the subject animal. The technique enables investigation of different pharmacological compounds for anxiolytic or anxiogenic effects (Seibenhener, M. L. & M. C. Wooten (2015) Use of the Open Field Maze to Measure Locomotor and Anxiety-like Behavior in Mice. Journal of Visualized Experiments: JoVE, 52434). Rodents show distinct aversions to large, brightly lit, open and unknown environments (Choleris, E., A. W. Thomas, M. Kavaliers & F. S. Prato (2001) A detailed ethological analysis of the mouse open field test: effects of diazepam, chlordiazepoxide and an extremely low frequency pulsed magnetic field. Neuroscience & Biobehavioral Reviews, 25, 235-260). These features are incorporated in the open field test and form the basis of its use in behavioural paradigm testing. There are various parameters that can be quantified from the open field, but the primary parameter of interest is thigmotaxis, the tendency of a subject to remain close to walls as determined by measuring time spent in inner zones versus outer zones of the maze (Simon, P., R. Dupuis & J. Costentin (1994) Thigmotaxis as an index of anxiety in mice. Influence of dopaminergic transmissions. Behavioural brain research, 61, 59-64). […] For the OFT, animals were placed in the open field arena and allowed to freely explore for 5 minutes. The session was recorded and analysed by EthoVision software which quantified the total distance covered. The number of entries into and total time spent in the centre of the arena were scored by two observers blind to experimental conditions (FIG. 9).

[1] = cohort 1, cocaine+20 mg/kg 5-MeO-DMT

| Compound | number of entries into the centre of the open field arena (cohort 1, 20 mg/kg 5-MeO-DMT, p=0.0139, no post hoc differences) | duration of rearing behaviour, main effect (cohort 1) | duration of time spent in the centre of the arena (cohort 1) | number of rearings, main effect (cohort 1) | duration of rearing behaviour [1] | number of rearings [1] | total distance travelled (cohort 1, cocaine+20 mg/kg 5-MeO-DMT relative to cocaine+vehicle) | total distance travelled (cohort 1, saline+20 mg/kg 5-MeO-DMT relative to saline+vehicle) | number of rearings (cohort 2, 10 mg/kg 5-MeO-DMT, p=0.0031, no post hoc differences) | duration of rearings (cohort 2, 10 mg/kg 5-MeO-DMT, p=0.0837) | duration of time spent in the centre of the field (cohort 2) | total distance travelled (cohort 2, saline+10 mg/kg 5-MeO-DMT relative to saline+vehicle) | number of entries into the centre of the open field (cohort 2, cocaine p=0.0448, no post hoc differences) |
| --- | --- | --- | --- | --- | --- | --- | --- | --- | --- | --- | --- | --- | --- |
| COc1ccc2[nH]cc(CCN(C)C)c2c1 [5-MeO-DMT, 5-methoxy-N,N-dimethyltryptamine] | significantly affected | affected | not affected by any treatment group | significantly affected | significant decrease in the combination group relative to control | significantly decreased the number of rearings relative to the control and cocaine-treated animals | reduction in the total distance travelled | reduction in the total distance travelled | significant effect | not the duration of rearings | not changed by any of treatments | specific reduction in the total distance travelled |  |
| COC(=O)[C@H]1[C@@H](OC(=O)c2ccccc2)C[C@@H]2CC[C@H]1N2C.Cl [cocaine, cocaine hydrochloride, reference compound] |  | affected | not affected by any treatment group | significantly affected |  |  |  |  |  |  | not changed by any of treatments |  | significantly affected |
